Reference: patent US9365511B2, “Biphenyl-ethyl-pyrrolidine derivatives as histamine H3 receptor modulators for the treatment of cognitive disorders” (Arena Pharmaceuticals, Inc., priority 2013, dated 2016)
Entries after “also recorded” stand apart in the source; their conditions may differ. Read-outs that look alike come from different tables or passages of the source.

Legend:
human H3 receptor = human H3 receptor (Homo sapiens (Human), UniProt Q9Y5N1); assay: Human H3 receptor HTRF cAMP assay; assay type: cell-based; conditions: HEK293 cells expressing the human H3 receptor, forskolin 2 μM; read-out: IC50 H3R
Text: Homogeneous time-resolved fluorescence assays (HTRF®, Cisbio) detect levels of cAMP in lysed cell preparations using a europium or terbium cryptate-labeled anti-cAMP antibody and fluorophore-labeled cAMP (cAMP-d2). In the absence of exogenous cAMP, the anti-cAMP antibody binds to cAMP-d2. Photoexcitation of the cryptate donor results in a combination of cryptate emission at 620 nm and fluorescence resonance energy transfer (FRET) from the cryptate to the acceptor d2 fluorophore, which then fluoresces at 665 nm. The 620/665 nm emission ratio is monitored. In the presence of exogenous cAMP, which competes with cAMP-d2 for binding to the anti-cAMP antibody, FRET is decreased and the […], providing a sensitive and accurate means to measure cAMP levels in biological assays.
Compounds of the present invention were evaluated using the human H3 receptor (H3R) HTRF cAMP assay. In this assay, HEK293 cells expressing the human H3 receptor were suspended in PBS containing 100 μM IBMX and plated into 384-well assay plates (Perkin Elmer Proxiplate 384-Plus; 15,000 cells per well; 5 μL plating volume) and allowed to equilibrate for an hour. Test compounds were serially diluted in 100% DMSO and then further diluted in PBS containing forskolin (2 μM). Test compounds (5 μL) were then added to the assay plate and the mixture was incubated for 1 hour. HTRF assay reagents (Cisbio, Dynamic 2 cAMP Kit), cAMP-d2 and cryptate-labeled anti-cAMP antibody, are mixed with cell lysis buffer and added to the assay plate. After 1-hour incubation with these reagents, the assay plate was read on an HTRF-compatible microplate reader (Perkin Elmer EnVision or BMG Pherastar). A cAMP standard curve was included on each assay plate and HTRF emission ratios for test compounds were fit to this curve to generate accurate measures of cAMP levels in each test well.

[1] = tested on: histamine-induced scratching behavior in mice; assay: Histamine-induced model for pruritus (Example 5); assay type: in vivo, C57BL/6 mice; conditions: oral administration, histamine 3 μmol s.c. 30 min post-dosing, bouts counted 0-30 min, FIG. 5
Experimental: C57BL/6 mice (9 per group) were administered with either vehicle (0.5% Methocellulose) or Compound 3. Thirty minutes post-dosing, the mice were injected with histamine (3 μmol) subcutaneously and placed in a clear observation box. Mice were video recorded and the number of scratching bouts that occurred between 0 and 30 minutes was counted after histamine injection.

[2] = tested on: histamine-induced scratching behavior in mice; assay: Histamine-induced model for pruritus (Example 6); assay type: in vivo, C57BL/6j male mice; conditions: oral administration, histamine s.c. 30 min post-dosing, bouts counted 5-15 min, FIG. 6
Experimental: H3R inhibitors, Compound 3 and Compound 11, were dissolved in 0.5% methylcellulose at the appropriate concentration and 100 μL were administered orally to 8-week-old C57BL/6j male mice. Thirty minutes post-dosing, 25 μL of 40 mg/mL histamine solution was injected subcutaneously at the rostral part of the back. Mice were video recorded and the number of scratching bouts that occurred between 5 and 15 minutes was counted after histamine injection.

[3] = Brain to plasma ratio determination in male C57BL6 mouse; assay type: in vivo, Male C57BL6 mice
Experimental: Male C57BL6 mice were administered Compound 3 at 3 mg/kg by either intraperitoneal injection (IP) or oral gavage (PO). Plasma and brain samples were collected at 0.5 and 2.0 h post-dose. Blood samples were collected via eye bleed, followed by decapitation and extraction of the brain from the cranial cavity. Blood was treated with 0.5% EDTA; plasma was separated by centrifugation. Brain tissue was placed in ice-cold containers. Plasma and brain samples were frozen at approximately −70° C. until assayed at Arena Pharmaceuticals. Compound 3 plasma and brain concentrations were determined by LC/MS/MS. The lower limit of quantitation (i.e., LLQ) was 25.0 and 3.0 ng/mL for plasma and brain, respectively.

Chain of human H3 receptor (Q9Y5N1 whole entry): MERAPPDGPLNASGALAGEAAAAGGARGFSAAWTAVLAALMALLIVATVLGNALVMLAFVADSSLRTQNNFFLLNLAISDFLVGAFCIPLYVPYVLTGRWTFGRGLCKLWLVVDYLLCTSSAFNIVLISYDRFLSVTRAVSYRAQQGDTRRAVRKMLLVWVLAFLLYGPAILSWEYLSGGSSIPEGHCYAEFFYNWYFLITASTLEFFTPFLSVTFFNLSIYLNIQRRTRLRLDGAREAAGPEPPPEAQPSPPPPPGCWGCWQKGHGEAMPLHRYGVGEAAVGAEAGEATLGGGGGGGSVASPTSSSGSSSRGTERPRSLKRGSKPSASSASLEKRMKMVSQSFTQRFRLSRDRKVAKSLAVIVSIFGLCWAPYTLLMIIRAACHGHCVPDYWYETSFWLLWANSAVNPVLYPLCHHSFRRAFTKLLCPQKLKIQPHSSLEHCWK

IC50 (human H3 receptor): 2.5 nM
concentration at 0.5 h ([3]; C57BL6, brain, 3 mg/kg PO, 0.5 h post-dose, read-out: brain concentration): 39.8 ± 22.7 ng/g
concentration at 2 h ([3]; C57BL6, brain, 3 mg/kg PO, 2.0 h post-dose, read-out: brain concentration): 29.1 ± 7 ng/g
concentration at 0.5 h ([3]; C57BL6, brain, intraperitoneal, 3 mg/kg IP, 0.5 h post-dose, read-out: brain concentration): 71.7 ± 10.7 ng/g
concentration at 2 h ([3]; C57BL6, brain, intraperitoneal, 3 mg/kg IP, 2.0 h post-dose, read-out: brain concentration): 17.2 ± 7.5 ng/g
Kp ([3]; C57BL6, brain/plasma, 3 mg/kg IP, independent of time): ~0.05
Kp at 0.5 h ([3]; C57BL6, brain/plasma, 3 mg/kg PO, 0.5 h post-dose): 0.04
Kp at 2 h ([3]; C57BL6, brain/plasma, 3 mg/kg PO, 2.0 h post-dose): 0.05
concentration at 0.5 h ([3]; C57BL6, plasma, 3 mg/kg PO, 0.5 h post-dose, read-out: plasma concentration): 1080 ± 487 ng/mL
concentration at 2 h ([3]; C57BL6, plasma, 3 mg/kg PO, 2.0 h post-dose, read-out: plasma concentration): 619 ± 185 ng/mL
concentration at 0.5 h ([3]; C57BL6, plasma, intraperitoneal, 3 mg/kg IP, 0.5 h post-dose, read-out: plasma concentration): 1350 ± 104 ng/mL
concentration at 2 h ([3]; C57BL6, plasma, intraperitoneal, 3 mg/kg IP, 2.0 h post-dose, read-out: plasma concentration): 364 ± 135 ng/mL
Compound: C[C@@H]1CCCN1CCc1ccc(-c2ccc(CCC(=O)O)cc2)cc1 [Compound 3, (R)-3-(4′-(2-(2-Methylpyrrolidin-1-yl)ethyl)biphenyl-4-yl)propanoic Acid]
histamine-induced scratching behavior (number of scratching bouts) [1]: effectively inhibits histamine-induced pruritus; also recorded: inhibit histamine-induced scratching behavior
histamine-induced scratching behavior (number of scratching bouts) [2]: effectively inhibit histamine-induced pruritus; also recorded: inhibit histamine-induced scratching behavior
